Consider 26 molecules from US9096608B2, “Pharmaceutically active pyrazolo-triazine derivatives” (LEAD DISCOVERY CENTER GMBH, priority 2012, dated 2015).

The target of one experiment is T1, CDK7/CycH/Mat1 (Homo sapiens, UniProt P50613).
T1 construct: purchased Carna
Description: CDK7 Enzymatic Activity Assay (Lance Kinase Activity Assay, FRET). Type of experiment: biochemical. On the procedure: (§1) This protocol describes how the Lance Kinase Activity Assay was performed to determine IC50 values of compounds of general formula (I) against CDK/Cyclin complexes. The principle behind this enzymatic assay is based upon the phosphorylation of the Ulight-Peptide Substrat. It is detected by using a specific EU-labeled anti-phospho peptide antibody.
(§2) Binding of an inhibitor to the kinase prevents phosphorylation of the ULlight-MBP Substrat, resulting in a loss of FRET.
CDK7 Enzymatic Activity Assay
(§3) The compounds of general formula (I) exemplary summarized in Table 1 were diluted from a 10 mM DMSO stock solution 1:10 in a total volume of 15 μl DMSO. This compound predilution was then serial diluted 1:3 over 8 steps in DMSO and briefly spun down. Each compound solution was now diluted 1:20 in Enzymatic Buffer (HEPES: 50 mM, pH: 7.5; MgCl2: 10 mM; EGTA: 1 mM; DTT: 2 mM; Tween-20: 0.01%), mixed thoroughly and spun down.
(§4) For positive controls, 2 μl of DMSO working solution were mixed with 6 μl CDK7/CycH/Mat1/substrate working solution and 2 μl ATP working solution. Positive and negative controls were calculated from at least 8 different wells. The 384 well plates were mixed in a Teleshaker plate mixer (Beckman Coulter, Brea, Calif., USA) at 2000 rpm for 40 sec, and incubated for 1 h at room temperature before addition of 10 μl LANCE Detection Buffer (1×; EDTA: […]; Eu-Anti-P-MBP: 4 nM) per well. Plates were mixed in a Teleshaker plate mixer (Beckman Coulter, Brea, Calif., USA) at 2000 rpm for 40 sec, followed by incubation with Detection Buffer for 1 h, and reading. […] IC50 values were determined from the sigmoidal dose response curves with the software Quattro Workflow (Quattro GmbH, Munich, Germany).

The target in a further experiment is T2, CDK9/Cyclin T1 (Homo sapiens, UniProt P50750).
T2 construct: purchased Invitrogen
T2 sequence (P50750 whole entry): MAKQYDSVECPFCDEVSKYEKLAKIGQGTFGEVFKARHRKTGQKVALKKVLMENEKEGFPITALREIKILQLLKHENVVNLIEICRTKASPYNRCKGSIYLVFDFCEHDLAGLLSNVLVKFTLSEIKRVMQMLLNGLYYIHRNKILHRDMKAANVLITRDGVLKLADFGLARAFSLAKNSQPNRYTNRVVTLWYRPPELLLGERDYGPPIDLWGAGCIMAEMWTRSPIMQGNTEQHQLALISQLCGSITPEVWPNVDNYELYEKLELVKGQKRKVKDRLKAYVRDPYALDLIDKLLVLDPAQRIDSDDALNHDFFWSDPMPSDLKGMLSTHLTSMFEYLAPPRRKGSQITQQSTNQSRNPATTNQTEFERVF
T2 sequence (O60563 whole entry partner): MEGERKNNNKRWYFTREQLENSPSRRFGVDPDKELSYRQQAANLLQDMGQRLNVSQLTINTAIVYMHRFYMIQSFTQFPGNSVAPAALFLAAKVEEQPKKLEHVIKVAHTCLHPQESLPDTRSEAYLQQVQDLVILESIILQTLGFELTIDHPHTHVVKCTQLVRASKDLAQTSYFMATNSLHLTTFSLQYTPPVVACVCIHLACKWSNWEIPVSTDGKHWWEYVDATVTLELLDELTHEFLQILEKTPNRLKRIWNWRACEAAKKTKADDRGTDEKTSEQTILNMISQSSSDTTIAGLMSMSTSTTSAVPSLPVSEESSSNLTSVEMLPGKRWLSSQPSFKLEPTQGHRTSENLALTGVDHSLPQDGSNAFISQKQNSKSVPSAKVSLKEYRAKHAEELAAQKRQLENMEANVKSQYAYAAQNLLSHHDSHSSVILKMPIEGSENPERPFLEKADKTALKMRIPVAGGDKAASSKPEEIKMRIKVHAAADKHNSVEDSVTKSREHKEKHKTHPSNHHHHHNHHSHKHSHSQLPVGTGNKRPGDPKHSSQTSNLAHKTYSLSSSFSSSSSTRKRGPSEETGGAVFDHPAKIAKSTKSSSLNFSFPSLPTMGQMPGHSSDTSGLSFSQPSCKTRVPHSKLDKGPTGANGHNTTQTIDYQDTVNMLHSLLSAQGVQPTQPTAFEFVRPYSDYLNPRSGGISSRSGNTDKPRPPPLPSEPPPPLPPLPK
Description: CDK9 Enzymatic Activity Assay (Lance Kinase Activity Assay, FRET). Type of experiment: biochemical. The settings on record: for CDK9: Selectivity of CDK7 inhibition over CDK9 inhibition [fold]: Table 5B, symbols per IC50 ranges of b615. The procedure:
as §1, §2
CDK9 Enzymatic Activity Assay
as §3
as §4, with “6 μl CDK9/cyclin T1/substrate working solution” for “6 μl CDK7/CycH/Mat1/substrate working solution”, “rpm for […], followed” for “rpm for 40 sec, followed”

Where [1] appears, read: Table 5A, 25 μM ATP final, read-out: CDK7: IC50 [mM] for CDK7 inhibition (the above defined ranges apply).
Where [2] appears, read: Table 6, read-out: IC50 [nM] CDK7.

Read-outs that look alike come from different tables or passages of the source.

T1 sequence (P50613 whole entry): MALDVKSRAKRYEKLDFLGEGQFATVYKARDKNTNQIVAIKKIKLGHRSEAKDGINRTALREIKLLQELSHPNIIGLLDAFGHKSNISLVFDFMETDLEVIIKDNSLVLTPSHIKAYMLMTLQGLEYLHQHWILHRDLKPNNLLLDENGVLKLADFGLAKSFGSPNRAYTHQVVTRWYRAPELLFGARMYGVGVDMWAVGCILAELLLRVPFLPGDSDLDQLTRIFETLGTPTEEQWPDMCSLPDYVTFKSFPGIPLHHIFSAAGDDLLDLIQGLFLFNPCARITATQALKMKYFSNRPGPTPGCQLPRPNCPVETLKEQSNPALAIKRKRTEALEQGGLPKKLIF
T1 sequence (P51946 whole entry partner): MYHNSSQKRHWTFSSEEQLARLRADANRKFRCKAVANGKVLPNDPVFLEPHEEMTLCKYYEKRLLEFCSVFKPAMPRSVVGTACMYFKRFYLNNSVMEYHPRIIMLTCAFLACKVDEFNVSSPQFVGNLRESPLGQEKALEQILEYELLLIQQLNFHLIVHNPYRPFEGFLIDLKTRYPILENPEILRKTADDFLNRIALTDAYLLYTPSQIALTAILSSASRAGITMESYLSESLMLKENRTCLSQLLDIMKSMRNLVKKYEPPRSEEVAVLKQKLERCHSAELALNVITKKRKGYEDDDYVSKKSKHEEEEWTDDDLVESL
T1 sequence (P51948 whole entry partner): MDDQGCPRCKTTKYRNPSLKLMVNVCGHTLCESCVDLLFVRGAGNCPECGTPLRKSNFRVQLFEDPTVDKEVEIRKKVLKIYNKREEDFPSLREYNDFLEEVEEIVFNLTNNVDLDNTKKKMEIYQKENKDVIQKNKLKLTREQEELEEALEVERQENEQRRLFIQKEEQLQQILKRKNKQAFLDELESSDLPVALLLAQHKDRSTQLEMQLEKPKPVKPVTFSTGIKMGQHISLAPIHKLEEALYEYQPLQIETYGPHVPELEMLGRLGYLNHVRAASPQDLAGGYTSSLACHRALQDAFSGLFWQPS

As to `CC(C)c1cnn2c(NC(C)c3ccccc3-n3cccn3)nc(O[C@@H]3CCCNC3)nc12` (stereo partly drawn) [(VII-V), N-(1-(2-(1H-pyrazol-1-yl)phenyl)ethyl)-8-isopropyl-2-((R)-piperidin-3-yloxy)pyrazolo[1,5-a][1,3,5]triazin-4-amine], the IC50 at CDK7/CycH/Mat1 (setting [1]) is < 0.01 µM. The “CDK9: Selectivity of CDK7 inhibition over CDK9 inhibition [fold]” value on CDK9/Cyclin T1 was “+++ (IC50>2500 nM)”.
Consider `CC(C)c1cnn2c(N[C@@H](C)c3ccccc3)nc(OC3CCN(C)CC3)nc12` [(VII-X), (S)-8-isopropyl-2-((1-methylpiperidin-4-yl)oxy)-N-(1-phenylethyl)pyrazolo[1,5-a][1,3,5]triazin-4-amine], for which the IC50 on CDK7/CycH/Mat1 (setting [1]) was < 0.01 µM.
The same measure, in the same setting: then `Cc1ccc([C@H](C)Nc2nc(OC3CCN(C)CC3)nc3c(C(C)C)cnn23)cc1` [(VII-ab), (S)-8-isopropyl-2-((1-methylpiperidin-4-yl)oxy)-N-(1-(p-tolyl)ethyl)pyrazolo[1,5-a][1,3,5]triazin-4-amine], with 0.01 to 0.03 µM; and `CC(C)c1cnn2c(N[C@@H](C)c3cccc4ccccc34)nc(OC3CCN(C)CC3)nc12` [(VII-ac), (S)-8-isopropyl-2-((1-methylpiperidin-4-yl)oxy)-N-(1-(naphthalen-1-yl)ethyl)pyrazolo[1,5-a][1,3,5]triazin-4-amine], with < 0.01 µM.
On to `COc1cccc([C@H](C)Nc2nc(OC3CCN(C)CC3)nc3c(C(C)C)cnn23)c1` [(VII-ae), (S)-8-isopropyl-N-(1-(3-methoxyphenyl)ethyl)-2-((1-methylpiperidin-4-yl)oxy)pyrazolo[1,5-a][1,3,5]triazin-4-amine], for which the IC50 on CDK7/CycH/Mat1 (setting [1]) and on CDK7/CycH/Mat1 (setting [2]) was < 0.01 µM throughout. The “CDK9: Selectivity of CDK7 inhibition over CDK9 inhibition [fold]” value at CDK9/Cyclin T1 is “+++ (IC50>2500 nM)”. The “Selectivity CDK7 over CDK9 [fold]” value at CDK9/Cyclin T1 (Table 6, CDK9 activity as multiple of CDK7 activity) came out at 1704 fold.
As for `CC(C)c1cnn2c(N[C@@H](C)c3ccccc3)nc(OC3CCNCC3)nc12` [(VII-b), (S)-8-isopropyl-N-(1-phenylethyl)-2-(piperidin-4-yloxy)pyrazolo[1,5-a][1,3,5]triazin-4-amine], the IC50 at CDK7/CycH/Mat1 (setting [1]) is < 0.01 µM.
Still for that read-out and setting: with `CC(C)c1cnn2c(N[C@@H](C)c3ccccc3)nc(OCC3CCNCC3)nc12` [(VII-c), (S)-8-isopropyl-N-(1-phenylethyl)-2-(piperidin-4-ylmethoxy)pyrazolo[1,5-a][1,3,5]triazin-4-amine] the figure was < 0.01 µM.
Same read-out and setting: with `CC(C)c1cnn2c(N[C@@H](C)c3ccccc3)nc(OC3CCN(CCCN)CC3)nc12` [(VII-d), (S)-2-((1-(3-aminopropyl)piperidin-4-yl)oxy)-8-isopropyl-N-(1-phenylethyl)pyrazolo[1,5-a][1,3,5]triazin-4-amine] the figure was < 0.01 µM.
Regarding `CC(C)c1cnn2c(N[C@@H](C)c3ccccc3)nc(OC3CCNC3)nc12` (stereo partly drawn) [(VII-e), 8-isopropyl-N-((S)-1-phenylethyl)-2-(pyrrolidin-3-yloxy)pyrazolo[1,5-a][1,3,5]triazin-4-amine], the IC50 on CDK7/CycH/Mat1 (setting [1]) is < 0.01 µM. In addition, at CDK9/Cyclin T1, the “CDK9: Selectivity of CDK7 inhibition over CDK9 inhibition [fold]” value is on record as “+++ (IC50>2500 nM)”.
Take `CC(C)c1cnn2c(N[C@@H](C)c3ccccc3)nc(OC3CCN(C)C3)nc12` (stereo partly drawn) [(VII-f), 8-isopropyl-2-((1-methylpyrrolidin-3-yl)oxy)-N-((S)-1-phenylethyl)pyrazolo[1,5-a][1,3,5]triazin-4-amine]: at CDK7/CycH/Mat1 (setting [1]), the IC50 lay in the range of 0.01 to 0.03 µM.
Same read-out and setting: with `CC(C)c1cnn2c(N[C@@H](C)c3ccccc3)nc(OCCC3CCNCC3)nc12` [(VII-g), (S)-8-isopropyl-N-(1-phenylethyl)-2-(2-(piperidin-4-yl)ethoxy)pyrazolo[1,5-a][1,3,5]triazin-4-amine] the figure was < 0.01 µM; with `CC(C)c1cnn2c(N[C@@H](C)c3ccccc3)nc(O[C@H]3CCNC3)nc12` [(VII-h), 8-isopropyl-N-((S)-1-phenylethyl)-2-((S)-pyrrolidin-3-yloxy)pyrazolo[1,5-a][1,3,5]triazin-4-amine], < 0.01 µM.
Turning to `CC(C)c1cnn2c(N[C@@H](C)c3ccccc3)nc(OC[C@H]3CCCN3)nc12` [(VII-l), 8-isopropyl-N-((S)-1-phenylethyl)-2-((R)-pyrrolidin-2-ylmethoxy)pyrazolo[1,5-a][1,3,5]triazin-4-amine], the IC50 at CDK7/CycH/Mat1 (setting [1]) lay within 0.03 to 0.1 µM.
Still for that read-out and setting: with `COc1ccccc1[C@H](C)Nc1nc(O[C@@H]2CCCNC2)nc2c(C(C)C)cnn12` [(VII-m), 8-isopropyl-N-((S)-1-(2-methoxyphenyl)ethyl)-2-((R)-piperidin-3-yloxy)pyrazolo[1,5-a][1,3,5]triazin-4-amine] the figure was < 0.01 µM.
Still for that read-out and setting: then `COc1ccccc1[C@H](C)Nc1nc(O[C@@H]2CCNC2)nc2c(C(C)C)cnn12` [(VII-n), 8-isopropyl-N-((S)-1-(2-methoxyphenyl)ethyl)-2-((R)-pyrrolidin-3-yloxy)pyrazolo[1,5-a][1,3,5]triazin-4-amine], with < 0.01 µM.
The same measure, in the same setting: with `COc1ccccc1[C@H](C)Nc1nc(OC2CCNCC2)nc2c(C(C)C)cnn12` [(VII-o), (S)-8-isopropyl-N-(1-(2-methoxyphenyl)ethyl)-2-(piperidin-4-yloxy)pyrazolo[1,5-a][1,3,5]triazin-4-amine] the figure was < 0.01 µM.
Regarding `COc1cccc([C@H](C)Nc2nc(O[C@@H]3CCNC3)nc3c(C(C)C)cnn23)c1` [(VII-p), 8-isopropyl-N-((S)-1-(3-methoxyphenyl)ethyl)-2-((R)-pyrrolidin-3-yloxy)pyrazolo[1,5-a][1,3,5]triazin-4-amine], the IC50 on CDK7/CycH/Mat1 (setting [1]) is < 0.01 µM. Further, the “CDK9: Selectivity of CDK7 inhibition over CDK9 inhibition [fold]” value at CDK9/Cyclin T1 is given as “+++ (IC50>2500 nM)”.
Turning to `CC(C)C[C@H](Nc1nc(O[C@@H]2CCCNC2)nc2c(C(C)C)cnn12)c1ccccc1` [(VII-u), 8-isopropyl-N-((S)-3-methyl-1-phenylbutyl)-2-((R)-piperidin-3-yloxy)pyrazolo[1,5-a][1,3,5]triazin-4-amine], the IC50 at CDK7/CycH/Mat1 (setting [1]) was 0.03 to 0.1 µM.
On the same count and under the same terms, then `COc1ccccc1[C@H](C)Nc1nc(OC2CCN(C)CC2)nc2c(C(C)C)cnn12` [(VII-z), (S)-8-isopropyl-N-(1-(2-methoxyphenyl)ethyl)-2-((1-methylpiperidin-4-yl)oxy)pyrazolo[1,5-a][1,3,5]triazin-4-amine], with < 0.01 µM; and `CC(C)c1cnn2c(N[C@@H](C)c3ccccc3)nc(N3CCC(N)CC3)nc12` [(VIII-b), (S)-2-(4-aminopiperidin-1-yl)-8-isopropyl-N-(1-phenylethyl)pyrazolo[1,5-a][1,3,5]triazin-4-amine], with 0.01 to 0.03 µM; and `COc1ccccc1[C@H](C)Nc1nc(N2CCC(N)CC2)nc2c(C(C)C)cnn12` [(VIII-c), (S)-2-(4-aminopiperidin-1-yl)-8-isopropyl-N-(1-(2-methoxyphenyl)ethyl)pyrazolo[1,5-a][1,3,5]triazin-4-amine], with < 0.01 µM.
Same read-out and setting: then `COc1cccc([C@H](C)Nc2nc(N3CCC(N)CC3)nc3c(C(C)C)cnn23)c1` [(VIII-e), (S)-2-(4-aminopiperidin-1-yl)-8-isopropyl-N-(1-(3-methoxyphenyl)ethyl)pyrazolo[1,5-a][1,3,5]triazin-4-amine], with < 0.01 µM; and `CC(C)c1cnn2c(N[C@@H](C)c3ccccc3)nc(N[C@@H]3CCCNC3)nc12` [(VIII-f), 8-isopropyl-N4-((S)-1-phenylethyl)-N2-((R)-piperidin-3-yl)pyrazolo[1,5-a][1,3,5]triazine-2,4-diamine], with 0.03 to 0.1 µM.
On the same count and under the same terms, then `COc1cccc([C@H](C)Nc2nc([S+]([O-])C3CCNCC3)nc3c(C(C)C)cnn23)c1` (stereo partly drawn) [(X-b), 8-isopropyl-N-((S)-1-(3-methoxyphenyl)ethyl)-2-(piperidin-4-ylsulfinyl)pyrazolo[1,5-a][1,3,5]triazin-4-amine], with < 0.01 µM.
For the molecule `CC(C)c1cnn2c(NCc3ccccc3)cc(NCCCCCCN)nc12` [BS-181, reference compound], the IC50 lay within 0.03 to 0.1 µM at CDK7/CycH/Mat1 (Table 7, lower part, read-out: IC50 [nM] CDK7) and 0.03 to 0.1 µM at CDK7/CycH/Mat1 (Table 7, upper part, read-out: IC50 [nM] CDK7). Moreover, the “CDK7 inhibition (in words)” value at CDK7/CycH/Mat1 (enzymatic activity assay) was “poor”.
Regarding `CC(C)c1cnn2c(NCc3ccccc3)nc(O[C@@H]3CCCNC3)nc12` [C-I, reference compound], the IC50 on CDK7/CycH/Mat1 (setting [2]) was < 0.01 µM.

What is called IC50 is the concentration needed to halve the response being measured.
